Data on one compound can be found in ChEMBL document CHEMBL2163239, “Inhibitors of human immunodeficiency virus type 1 (HIV-1) attachment 6. Preclinical and human pharmacokinetic profiling of BMS-663749, a phosphonooxymethyl prodrug of the HIV-1 attachment inhibitor 2-(4-benzoyl-1-piperazinyl)-1-(4,7-dimethoxy-1H-pyrrolo[2,3-c]pyridin-3-yl)-2-oxoethanone …” (J Med Chem, 2012).

Series [1] can be described thus: AUC (infinity) in high fat fed healthy human at 800 mg, po administered as capsule with high fat meal. Format: ADME, organism-based. The arrangement: dose 800 mg, time infinity, route oral. As to conditions: plasma.
The nature of series [2]: Lipophilicity, log P of compound in octanol-PBS mixture at pH 6.5 by HPLC-UV analysis. The series is classed as physicochemical.
Series [3] can be described thus: Tmax in high fat fed healthy human at 800 mg, po administered as capsule with high fat meal. The series is classed as ADME, organism-based. The settings on record: in vivo.
The nature of series [4]: Half life in high fat fed healthy human at 800 mg, po administered as capsule with high fat meal. Format: ADME, organism-based. The settings on record: in vivo.
For series [5], the system named is Homo sapiens. In words: Toxicity in HIV 1-infected human assessed as adverse events at 1800 mg, po bid for 8 days measured upto 14 days. The settings on record: in vivo. Format: organism-based.
A short description of series [6]: Cmax in high fat fed healthy human at 800 mg, po administered as capsule with high fat meal. Format: ADME, organism-based. Details: dose 800 mg, route oral. As to conditions: in vivo.
Series [7] is described as follows: Plasma concentration in high fat fed healthy human at 800 mg, po administered as capsule with high fat meal measured after 12 hrs. Format: ADME, organism-based.
Series [8] in a line: Permeability across human Caco2 cells at pH 6.5. Format: ADME, cell-based. The settings on record: Caco-2, pH 6.5, read-out: permeability. A general note: Passage across Caco-2 layers is used to estimate intestinal permeability.
Series [9] has as its system Human immunodeficiency virus 1. The experiment in a line: Antiviral activity against HIV 1-infected human assessed as reduction in viral load at 1800 mg, po bid for 8 days measured upto 14 days. Format: functional, organism-based.
Series [10] is described as follows: Dissociation constant, pKa of compound. The series is classed as physicochemical.

Active and inactive are the calls of the source.

Compound `COc1ncc(OC)c2c(C(=O)C(=O)N3CCN(C(=O)c4ccccc4)CC3)c[nH]c12` came in with an AUC(0-inf) in [1] of 21200 ng·h/mL. In addition, in series [2], the log distribution coefficient (logD) was found to be 1.5. Also, the Tmax in [3] was found to be 4 h. For the same compound, the half-life in series [4] was 14 h. Moreover, in [5], the Activity result is on record as “Non-toxic”. For the same compound, the peak level in series [6] (Cmax) was 4100 ng/mL. This compound also had a concentration at 12 h in [7] of 175 ng/mL. Further, the Papp in [8] was above 10 ×10⁻⁶ cm/s. Further, the result in series [9] was Active. This compound also registered a pKa in [10] of 2.6.

In general, AUC(0-inf) refers to the area under the concentration-time curve extrapolated to infinity. Usually logD stands for lipophilicity at a set pH, counting ionised and neutral species. As a reminder, the Tmax is the time at which the peak concentration occurs. Broadly, the half-life is the time needed for the level to fall by half in the phase considered. A lower half-life goes with fast loss. A word on the Cmax: it is the peak of the concentration-time curve. As a reminder, the pKa is the pH at which an ionisable group is half protonated. High values mean a group that holds its proton tightly, low ones a group that gives up its proton readily.
